According to PubChem BioAssay (NCI):
Where “and” joins values, the source holds several entries; their conditions need not be identical. Equal entries are not always repeated.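 Five compound concentrations were applied to cells in 96-well plates for 48 hours; endpoints were derived by simple linear interpolation of the resulting dose-response curve. GI50 is the concentration that inhibits growth by half. TGI: concentration producing complete growth inhibition.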

Key:
Assay in all cases: NCI tumour cell line growth inhibition, 48 h
A498 renal = tested on: A498 renal
ACHN renal = tested on: ACHN renal
T-47D breast = tested on: T-47D breast
HOP-18 NSCLC = tested on: HOP-18 NSCLC
P388 leukemia = tested on: P388 leukemia
P388/ADR leukemia = tested on: P388/ADR leukemia
SN12K1 renal = tested on: SN12K1 renal
SNB-78 CNS = tested on: SNB-78 CNS
786-0 renal = tested on: 786-0 renal
M19-MEL melanoma = tested on: M19-MEL melanoma
LXFL 529 NSCLC = tested on: LXFL 529 NSCLC

CC(=O)OC/C=C\Cn1nc(Br)c(=O)[nH]c1=O
TGI (A498 renal): 34.7 µM
TGI (ACHN renal): 23.4 µM
TGI (T-47D breast): 37.1 µM

CNC(=O)SCC(N)C(=O)O (stereo unspecified)
TGI (A498 renal): > 100 µM
TGI (HOP-18 NSCLC): > 100 µM
TGI (P388 leukemia): 39.1 µM
TGI (P388/ADR leukemia): 58 µM
TGI (SN12K1 renal): > 100 µM
TGI (SNB-78 CNS): > 100 µM

CC(=O)NC(c1nc2cc(C)c(C)cc2[nH]1)c1nc2cc(C)c(C)cc2[nH]1
TGI (A498 renal): 35.4 µM
TGI (ACHN renal): > 100 µM
TGI (T-47D breast): > 100 µM

CC1CCC2(C(=O)O)CCC3(C)C(=CCC4C5(C)CCC(O)C(C)(C)C5CCC43C)C2C1C (stereo unspecified)
TGI (786-0 renal): > 100 µM
GI50 (A498 renal): 7.07 µM and 22.6 µM
TGI (A498 renal): 23.3 µM and 45.3 µM
TGI (HOP-18 NSCLC): 34.4 µM
TGI (M19-MEL melanoma): 18.9 µM
TGI (P388 leukemia): 9.48 µM
TGI (P388/ADR leukemia): 17.8 µM
TGI (SN12K1 renal): 12.9 µM
TGI (SNB-78 CNS): 29.3 µM
TGI (T-47D breast): 29.3 µM

OC1CCOc2ccccc21 (stereo unspecified)
TGI (ACHN renal): > 100 µM
TGI (HOP-18 NSCLC): > 100 µM
TGI (LXFL 529 NSCLC): > 100 µM
TGI (M19-MEL melanoma): > 100 µM

CCC(=O)c1ccc2[nH]c3c(C)c4c(=O)cc(C)[nH]c4c(C)c3c2c1
TGI (786-0 renal): > 100 µM
TGI (A498 renal): > 100 µM
TGI (ACHN renal): > 100 µM
TGI (T-47D breast): > 100 µM

Cc1[nH]nc(N)c1C(N)=O
TGI (A498 renal): > 100 µM
TGI (ACHN renal): > 100 µM
TGI (LXFL 529 NSCLC): > 100 µM
TGI (SNB-78 CNS): > 100 µM

COc1cccc(/C=N/[N-]C(N)=O)c1[O-].[Ni+2].[OH3+].c1ccc(-c2ccccn2)nc1
TGI (ACHN renal): > 100 µM

CCOC(=O)c1c(Cl)nc2ccccc2c1N=[N+]=[N-]
TGI (A498 renal): > 100 µM
TGI (ACHN renal): > 100 µM
TGI (T-47D breast): 45.7 µM

S=C1CC(c2ccccc2)Sc2ccccc2N1 (stereo unspecified)
TGI (ACHN renal): > 100 µM
TGI (T-47D breast): > 100 µM

COc1cc(OC)c(/C=C\c2cc(/C=C/c3c(OC)cc(OC)cc3OC)c3ccccc3[n+]2C)c(OC)c1
TGI (786-0 renal): 7.56 µM
TGI (A498 renal): 14 µM
TGI (ACHN renal): 25.8 µM
TGI (T-47D breast): 7.11 µM

C/C=C/C1=CC(=O)C(O)C1O (stereo unspecified)
TGI (A498 renal): 16.7 µM
TGI (HOP-18 NSCLC): 27.1 µM
TGI (M19-MEL melanoma): 113 µM
TGI (P388 leukemia): 141 µM
TGI (P388/ADR leukemia): 113 µM
TGI (SN12K1 renal): 84.2 µM
TGI (SNB-78 CNS): 173 µM

NC(=O)CCC(N=C(N)c1csc(C2OC(CO)C(O)C2O)n1)C(=O)O (stereo unspecified)
TGI (A498 renal): > 100 µM
TGI (ACHN renal): > 100 µM
TGI (LXFL 529 NSCLC): > 100 µM
TGI (SNB-78 CNS): > 100 µM

O=C(N/N=C/c1cc(Cl)cc(Cl)c1[O-])c1ccccc1O.O=C(N/N=C/c1cc(Cl)cc(Cl)c1[O-])c1ccccc1O.[Zn+2]
TGI (ACHN renal): 12.9 µM
